Source: US8697145B2, “Substances having body mass redistribution properties” (Horizon Science Pty. Ltd., priority 2005, dated 2014)

How the values were obtained:
Sprague Dawley rats = assay: Body mass distribution of rats on high fat diet with tea treatments (DEXA); type: in vivo; conditions: at 11 and 18 weeks, vs water control
Source text: Animals and treatments: Male Sprague Dawley rats (n=48) were purchased from the Animal Resource Centre (Canning Vale, WA) at 3 weeks of age. Animals were allowed to acclimate for 1 week on Purina rat chow and water. From 4 weeks of age, all animals were provided with a semi-synthetic, high fat diet (15% fat, Table 6) (Specialty Feeds, Glen Forrest, WA) and administered one of four fluid treatments: Green Tea, Black Tea, Epigallocatechin Gallate (EGCG) or water. Tea and tea extracts were given as 100% of their fluid intake. Rats were maintained on the high fat diet and tea treatment until week 29. Food and fluid intakes were measured daily and body weights recorded weekly.
Green and Black tea: Green and Black tea bags (Dilmah Natural Green Tea™ and Dilmah Black Tea™) were purchased from a local retail outlet. Ten tea bags (approximately 2 g tea leaves/bag) were steeped in 1 liter of boiling tap water in a covered container for 3 minutes. Tea bags were then expelled of excess tea and the tea preparations made up to a 2 liter volume with cold tap water. This approximated to 1 tea bag per 200 ml of water. […]
Dual Energy X-ray Absorptiometry (DEXA): Body composition was determined by dual energy x-ray absorptiometry using a Hologic QDR-4000/W Absorptiometer. […] Fat, lean and total mass was measured, along with the percentage fat ratio and bone mineral content. […]

α-glucosidase = assay: α-Glucosidase inhibition assay; type: biochemical
Procedure: α-Glucosidase: Molasses powder sample was solubilized in water prior to use in this assay. Fucoidan was included as a positive control, and was also solubilized in water.
Glucosidase enzyme was solubilized in acetate buffer (50 mM, pH 4.5) at a concentration of 0.7 mg/mL. This provided a final concentration of 0.2 U/mL. To a 96-well plate, 50 μL of enzyme was added to each well. A corresponding set of wells was also included, in which acetate buffer was added instead of enzyme. Sample/controls were then added to the wells (5 μL), in triplicate, followed by the substrate 4-Nitrophenyl-α-D-glucopyranoside (final concentration 2 mM). The plate was covered, shaken and then incubated at 37° C. for 30 minutes. The reaction was stopped with the addition of 0.2 M Na2CO3 (100 μL/well). Absorbance was measured at 405 nm, using a Victor^2 plate reader.
The absorbance of the wells containing sample, substrate, and buffer were subtracted from the corresponding wells containing the glucosidase enzyme and the percent inhibition by the samples was calculated compared to the solvent controls.

rats = conditions: treated rats (Zorad et al. 1995); cited from earlier work

Compound: O=C(O[C@@H]1Cc2c(O)cc(O)cc2O[C@@H]1c1cc(O)c(O)c(O)c1)c1cc(O)c(O)c(O)c1 [EGCG, (−)-epigallocatechin-3-gallate]
- grams of lean mass (Sprague Dawley rats): significantly higher

Compound: Fucoidan
- IC50 (α-glucosidase) (α-glucosidase): 14 µg/mL
- % Inhibition of α-glucosidase (α-glucosidase; 4.7 μg/mL): 5.7 ± 3.1%
- % Inhibition of α-glucosidase (α-glucosidase; 9.4 μg/mL): 19.3 ± 2.7%
- % Inhibition of α-glucosidase (α-glucosidase; 18.8 μg/mL): 73.5 ± 7.5%
- % Inhibition of α-glucosidase (α-glucosidase; 37.5 μg/mL): 97.4 ± 5.9%

Compound: CCCCc1nc(Cl)c(CO)n1Cc1ccc(-c2ccccc2-c2nn[nH]n2)cc1 [losartan]
- adipocyte size (rats): reduction
